{
  "source": "paper PMC3963471",
  "about": "(Bioorganic & medicinal chemistry letters, 2013)",
  "key": {"[1]": {"molecular_target": "T1, S1P3-R (Homo sapiens, UniProt Q99500)", "T1 sequence (Q99500 whole entry)": "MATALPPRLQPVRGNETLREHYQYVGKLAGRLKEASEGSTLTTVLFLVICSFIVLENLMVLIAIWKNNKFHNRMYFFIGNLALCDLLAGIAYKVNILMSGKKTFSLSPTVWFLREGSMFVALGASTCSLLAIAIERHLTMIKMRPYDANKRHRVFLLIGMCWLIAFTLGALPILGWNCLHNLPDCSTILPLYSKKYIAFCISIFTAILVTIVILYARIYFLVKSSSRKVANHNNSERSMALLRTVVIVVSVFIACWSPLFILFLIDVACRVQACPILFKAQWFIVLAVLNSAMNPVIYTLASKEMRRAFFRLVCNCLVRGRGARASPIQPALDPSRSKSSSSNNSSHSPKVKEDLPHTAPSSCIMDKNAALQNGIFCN", "experiment": "S1P3-R agonist assay, CHO NFAT-BLA reporter", "assay_type": "cell-based", "details": "for loss in potency for the S1P3-R relative to hit 1a: less potent than 1a; for loss of potency at S1P3-R relative to 5f: less potent than 5f; for selectivity against S1P1,2,4,5-R subtypes (in words): S1P3-R agonist versus remaining subtypes"}, "[2]": {"molecular_target": "S1P1-R (Homo sapiens, UniProt P21453)", "sequence (P21453 whole entry)": "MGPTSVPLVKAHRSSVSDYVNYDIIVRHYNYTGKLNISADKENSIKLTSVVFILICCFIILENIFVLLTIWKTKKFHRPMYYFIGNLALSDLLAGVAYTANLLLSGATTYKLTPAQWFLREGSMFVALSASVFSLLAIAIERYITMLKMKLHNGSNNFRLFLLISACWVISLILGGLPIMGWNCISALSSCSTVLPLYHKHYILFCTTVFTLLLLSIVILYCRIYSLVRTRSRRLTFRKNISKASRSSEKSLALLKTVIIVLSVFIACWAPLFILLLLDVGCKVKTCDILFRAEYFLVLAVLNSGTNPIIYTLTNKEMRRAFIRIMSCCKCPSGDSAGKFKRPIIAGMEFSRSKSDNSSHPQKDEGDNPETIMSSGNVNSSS", "experiment": "S1P1-R agonist assay", "assay_type": "cell-based"}, "[3]": {"molecular_target": "T2, S1P4-R (Homo sapiens, UniProt O95977)", "T2 sequence (O95977 1-384)": "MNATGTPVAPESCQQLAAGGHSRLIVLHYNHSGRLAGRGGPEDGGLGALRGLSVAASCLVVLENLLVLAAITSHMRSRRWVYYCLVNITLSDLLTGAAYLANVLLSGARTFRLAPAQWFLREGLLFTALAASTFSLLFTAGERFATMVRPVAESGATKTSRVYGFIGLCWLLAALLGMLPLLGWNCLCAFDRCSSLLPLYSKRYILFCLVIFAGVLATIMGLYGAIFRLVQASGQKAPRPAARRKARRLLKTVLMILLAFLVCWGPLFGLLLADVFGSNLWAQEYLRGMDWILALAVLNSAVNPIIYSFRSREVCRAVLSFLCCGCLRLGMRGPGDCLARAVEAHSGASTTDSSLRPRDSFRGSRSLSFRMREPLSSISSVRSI", "experiment": "S1P4-R selectivity counter screen", "assay_type": "cell-based", "details": "at concentrations up to 50 µM"}, "[4]": {"molecular_target": "S1P2-R (Homo sapiens, UniProt O95136)", "sequence (O95136 whole entry)": "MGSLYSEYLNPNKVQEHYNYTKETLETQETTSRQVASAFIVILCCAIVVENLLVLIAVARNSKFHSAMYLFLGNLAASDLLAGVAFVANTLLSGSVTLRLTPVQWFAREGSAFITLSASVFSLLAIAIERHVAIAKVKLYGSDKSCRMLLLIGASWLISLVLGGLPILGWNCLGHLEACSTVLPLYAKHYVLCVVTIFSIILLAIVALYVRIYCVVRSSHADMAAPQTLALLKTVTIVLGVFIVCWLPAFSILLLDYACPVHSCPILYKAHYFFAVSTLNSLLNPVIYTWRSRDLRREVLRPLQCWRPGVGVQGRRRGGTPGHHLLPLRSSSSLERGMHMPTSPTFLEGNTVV", "experiment": "S1P2-R selectivity counter screen", "assay_type": "cell-based", "details": "at concentrations up to 50 µM"}, "[5]": {"tested_on": "sodium channel site two", "experiment": "Ricerca panel: sodium channel site two", "assay_type": "binding", "details": "30 µM; borderline inhibition"}, "[6]": {"molecular_target": "T1, S1P3-R", "experiment": "[33P]S1P competitive binding experiment in S1P3 jump-in CHO cells", "details": "0.1 nM [33P]S1P; competitor 0.001 nM to 10 µM; 4 °C, 30 min"}, "[7]": {"tested_on": "Ricerca panel of off target proteins including GPCRs, enzymes and ion channels", "experiment": "Ricerca panel of off target proteins", "details": "at 30 µM; targets other than those singled out"}},
  "data": [
    {"smiles": "CC1CCCCC1N(C(=O)c1cc(C2CC2)on1)C1CCCCCC1", "note": "(centres unmarked) [Compd 7g]", "values": [
      {"measurement": "less potent than 7e at S1P3-R", "setting": "[1]; relative to 7e", "value": "almost two-fold"}
    ]},
    {"smiles": "CC(C)c1cc(C(=O)N(C2CCCCC2)C2CCCCC2)no1", "note": "[Compd 5b]", "values": [
      {"measurement": "loss in potency for the S1P3-R relative to hit 1a", "setting": "[1]", "value": "two-fold"}
    ]},
    {"smiles": "O=C(c1cc(C2CCCC2)on1)N(C1CCCCC1)C1CCCCC1", "note": "[Compd 5e]", "values": [
      {"measurement": "activity at S1P1-R (in words)", "setting": "[2]", "value": "inactive"}
    ]},
    {"smiles": "O=C(c1cc(C2CC2)on1)N(CC1CCCCC1)C1CCCCC1", "note": "[Compd 7d]", "values": [
      {"measurement": "loss of potency at S1P3-R relative to 5f", "setting": "[1]", "value": 32, "unit": "fold"}
    ]},
    {"smiles": "O=C(c1cc(C2CC2)on1)N(C1CCCCCC1)C1CCCC1", "note": "[Compd 7j]", "values": [
      {"measurement": "loss of potency at S1P3-R relative to 5f", "setting": "[1]", "value": 26, "unit": "fold"}
    ]},
    {"smiles": "CCCc1cc(C(=O)N(C2CCCCC2)C2CCCCC2)no1", "note": "[Compd 1a, N,N-dicyclohexyl-5-propylisoxazole-3-carboxamide]", "values": [
      {"measurement": "agonist activity at S1P4-R", "setting": "[3]", "value": "no agonist activity"},
      {"measurement": "agonist activity at S1P2-R", "setting": "[4]", "value": "no agonist activity"}
    ]},
    {"smiles": "CCCc1cc(C(=O)N(c2ccccc2)C2CCCCC2)no1", "note": "[Compd 1d]", "values": [
      {"measurement": "activity at S1P1-R (in words)", "setting": "[2]", "value": "complete loss of potency"},
      {"measurement": "activity at S1P3-R (in words)", "setting": "[1]", "value": "complete loss of potency"}
    ]},
    {"smiles": "CC1CCCCC1N(C(=O)c1cc(C2CC2)on1)C1CCCCC1", "note": "(centres unmarked) [Compd 7e]", "values": [
      {"measurement": "selectivity against S1P1,2,4,5-R subtypes (in words)", "setting": "[1]", "value": "exquisitely selective"},
      {"measurement": "loss of potency at S1P3-R relative to 5f", "setting": "[1]", "value": "three-fold"}
    ]},
    {"smiles": "O=C(c1cc(C2CC2)on1)N(Cc1ccccc1)c1ccccn1", "note": "[Compd 7l]", "values": [
      {"measurement": "activity at S1P3-R (in words)", "setting": "[1]", "value": "drastic loss in potency"}
    ]},
    {"smiles": "O=C(c1cc(C2CC2)on1)N(C1CCCCC1)C1CCCCC1", "note": "[Compd 5f, N,N-dicyclohexyl-5-cyclopropylisoxazole-3-carboxamide]", "values": [
      {"measurement": "inhibition of sodium channel site two", "setting": "[5]", "value": "≥ 50", "unit": "%"},
      {"measurement": "competition with [33P]S1P for the S1P3-R binding pocket", "setting": "[6]", "value": "does not compete"},
      {"measurement": "stimulation/inhibition of panel targets", "setting": "[7]", "value": "< 50", "unit": "%"},
      {"measurement": "selectivity against S1P1,2,4,5-R subtypes (in words)", "setting": "[1]", "value": "exquisitely selective"},
      {"measurement": "more potent than the hit at S1P3-R", "setting": "[1]; relative to 1a", "value": "four-fold"}
    ]},
    {"smiles": "CCOc1ccc(-c2cc(C(=O)N(C3CCCCC3)C3CCCCC3)no2)cc1OCC", "note": "[Compd 5i]", "values": [
      {"measurement": "loss in potency for the S1P3-R relative to hit 1a", "setting": "[1]", "value": 18, "unit": "fold"}
    ]},
    {"smiles": "CC1CCCCC1N(C(=O)c1cc(C2CC2)on1)C1CCCCC1C", "note": "(centres unmarked) [Compd 7f]", "values": [
      {"measurement": "selectivity against S1P1,2,4,5-R subtypes (in words)", "setting": "[1]", "value": "exquisitely selective"},
      {"measurement": "loss of potency at S1P3-R relative to 5f", "setting": "[1]", "value": "two-fold"}
    ]},
    {"smiles": "CCCc1cc(C(=O)NC2CCCCC2)no1", "note": "[Compd 1c]", "values": [
      {"measurement": "activity at S1P1-R (in words)", "setting": "[2]", "value": "complete loss of potency"},
      {"measurement": "activity at S1P3-R (in words)", "setting": "[1]", "value": "complete loss of potency"}
    ]},
    {"smiles": "O=C(c1cc(C2CC2)on1)N(C1CCCCC1)C1CCOCC1", "note": "[Compd 7c]", "values": [
      {"measurement": "loss of potency at S1P3-R relative to 5f", "setting": "[1]", "value": 33, "unit": "fold"}
    ]},
    {"smiles": "O=C(c1coc(C2CC2)n1)N(C1CCCCC1)C1CCCCC1", "note": "[Compd 9a]", "values": [
      {"measurement": "activity at S1P3-R (in words)", "setting": "[1]", "value": "inactive"}
    ]},
    {"smiles": "O=C(c1cc(C2CC2)on1)N(C1CCCCC1)C1CCCC1", "note": "[Compd 7b]", "values": [
      {"measurement": "loss of potency at S1P3-R relative to 5f", "setting": "[1]", "value": 16, "unit": "fold"}
    ]},
    {"smiles": "O=C(c1ccc(C2CC2)o1)N(C1CCCCC1)C1CCCCC1", "note": "[Compd 9b]", "values": [
      {"measurement": "activity at S1P1-R (in words)", "setting": "[2]", "value": "micromolar activity"},
      {"measurement": "activity at S1P3-R (in words)", "setting": "[1]", "value": "inactive"}
    ]},
    {"smiles": "CCCCCCCCCCCCC/C=C/[C@@H](O)[C@@H](N)COP(=O)(O)O", "note": "[S1P, Sphingosine-1-phosphate, reference compound]", "values": [
      {"measurement": "competition with [33P]S1P for the S1P3-R binding pocket", "setting": "[6]", "value": "competes"}
    ]},
    {"smiles": "O=C(NC1CCCCC1)c1cc(C2CC2)on1", "note": "[Compd 7a]", "values": [
      {"measurement": "activity at S1P3-R (in words)", "setting": "[1]", "value": "complete loss of activity"}
    ]},
    {"smiles": "O=C(c1cc(C2CCCCC2)on1)N(C1CCCCC1)C1CCCCC1", "note": "[Compd 5d]", "values": [
      {"measurement": "activity at S1P1-R (in words)", "setting": "[2]", "value": "inactive"}
    ]},
    {"smiles": "CC(C)Cc1cc(C(=O)N(C2CCCCC2)C2CCCCC2)no1", "note": "[Compd 5a]", "values": [
      {"measurement": "less selective against the S1P1-R than the hit", "setting": "[2]; S1P3-R over S1P1-R, relative to 1a", "value": "four-fold"},
      {"measurement": "loss in potency for the S1P3-R relative to hit 1a", "setting": "[1]", "value": "three-fold"}
    ]},
    {"smiles": "O=C(c1cc(C2CC2)on1)N(Cc1ccccc1)c1ccccc1", "note": "[Compd 7k]", "values": [
      {"measurement": "activity at S1P3-R (in words)", "setting": "[1]", "value": "drastic loss in potency"}
    ]},
    {"smiles": "COc1ccc(-c2cc(C(=O)N(C3CCCCC3)C3CCCCC3)no2)cc1", "note": "[Compd 5h]", "values": [
      {"measurement": "selectivity against the S1P1-R", "setting": "[2]; S1P3-R over S1P1-R", "value": "less than three-fold"}
    ]},
    {"smiles": "O=C(c1noc2ccccc12)N(C1CCCCC1)C1CCCCC1", "note": "[Compd 9c]", "values": [
      {"measurement": "activity at S1P3-R (in words)", "setting": "[1]", "value": "inactive"}
    ]},
    {"smiles": "Cc1cc(C(=O)N(C2CCCCC2)C2CCCCC2)no1", "note": "[Compd 5c]", "values": [
      {"measurement": "loss in potency for the S1P3-R relative to hit 1a", "setting": "[1]", "value": 15, "unit": "fold"}
    ]},
    {"smiles": "CCCc1cc(C(=O)N(C2CCCCC2)C2CCCC2)no1", "note": "[Compd 1b]", "values": [
      {"measurement": "loss in potency for the S1P1-R relative to hit 1a", "setting": "[2]; less potent than 1a", "value": "three-fold"},
      {"measurement": "loss in potency for the S1P3-R relative to hit 1a", "setting": "[1]", "value": 18, "unit": "fold"}
    ]}
  ]
}
